# Measured values taken from paper PMC7523345 (Investigational new drugs, 2018).
# Columns and labels:
# [1] = in vivo; cited from earlier work
# solid tumour xenografts = details: including 3 breast, 1 NSCLC, 1 pancreatic carcinoma; nonclinical; cited from earlier work
# Deltex1 = Deltex1 expression in peripheral blood; type: in vivo, human; details: 4 mg BIW
# advanced solid tumours = experiment: Tumour response by RECIST 1.1; type: in vivo, human
# [2] = system: human T-ALL xenograft models; details: single agent; nonclinical; cited from earlier work
# Hes1 = Hes1 expression in peripheral blood; type: in vivo, human; details: after 2 weeks of dosing at 1.2 mg QD and 1.5 mg QD
# [3] = target: Notch receptors (Notch1 to 4); details: all 4 mammalian Notch receptors (Notch1 to 4); nonclinical; cited from earlier work
# clinical = experiment: clinical; parameters: species or system human; details: in vivo
compound,measurement,setting,value
Cc1cccc2c1NC(=O)[C@@H](NC(=O)[C@H](CCC(F)(F)F)[C@H](CCC(F)(F)F)C(N)=O)N=C2c1cccc(F)c1 [BMS-986115],Main pharmacological toxicities in animal studies,[1],"dose-dependent gastrointestinal (GI) toxicity, lymphoid depletion, and interruption of ovarian follicle maturation"
same,Solid tumour xenografts with anti-tumour activity,solid tumour xenografts,5 out of 7
same,Inhibition of geometric mean relative expression of Deltex1,Deltex1,> 50%
same,Subjects with progressive disease as best tumour response,advanced solid tumours; 36 treated subjects,58%
same,Subjects with stable disease (SD) as best tumour response,advanced solid tumours; 36 treated subjects,31%
same,Subjects with SD for more than 6 months,"advanced solid tumours; 36 treated subjects, both arms",5 subjects
same,Patients with stable disease for more than 6 months,advanced solid tumours; Arm A,Three
same,Patients with stable disease for more than 6 months,advanced solid tumours; Arm B,2 patients
same,Patients with prolonged SD of >6 months with disease shrinkage,advanced solid tumours; dose levels that are pharmacodynamically active,3 patients
same,maximum tumor shrinkage,"advanced solid tumours; patient with clear cell renal cell carcinoma, 1.2 mg QD, after ~5.5 months of treatment",23.9%
same,maximum disease shrinkage,"advanced solid tumours; patient with fibromatosis, 1.5 mg QD, after ~9 months of treatment",16.5%
same,maximum tumor shrinkage,"advanced solid tumours; patient with retroperitoneal liposarcoma, 2 mg QD, after ~7.5 months of treatment",13.8%
same,Efficacy in human T-ALL xenograft models,[2],effective as a single agent
same,Peak inhibition of geometric mean relative expression of Hes1,Hes1,> 80%
same,median inhibitory concentrations (IC50s),[3],low nanomolar
same,half-life,clinical; human,17.2 to 28 h
same,median accumulation ratio (AUCtau ratio of Day 15/Day 1),"clinical; human, 0.3 mg",2.64
same,median accumulation ratio (AUCtau ratio of Day 15/Day 1),"clinical; human, 0.6 mg",3.9
same,median accumulation ratio (AUCtau ratio of Day 15/Day 1),"clinical; human, 1.2 mg",3.66
same,median accumulation ratio (AUCtau ratio of Day 15/Day 1),"clinical; human, 1.5 mg",2.33
same,Accumulation ratio (AUCtau ratio of Day 16/Day 1),"clinical; human, 2 mg",2.47
same,median accumulation ratio (AUCtau ratio of Day 15/Day 1),"clinical; human, 2 mg",2.19
same,Accumulation ratio (AUCtau ratio of Day 16/Day 1),"clinical; human, 4 mg",3.01
same,Accumulation ratio (AUCtau ratio of Day 16/Day 1),"clinical; human, 8 mg",2.77
same,"Exposure, dose relation",clinical,dose related increase
